Measurements taken from the supplement of paper PMC11061612.

Columns and labels:
[1] = tested on: EB-3 (Burkitt's Lymphoma); assay: Bliss excess, mean over the matrix (fraction); higher = more synergy
Method in brief: (§1)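 Bliss excess equals the observed combination effect minus the expected value EA + EB − EA·EB, where EA and EB are the effects of each agent alone. Combination Emax is the second-highest inhibition within the matrix. Inhibition was scaled from CellTiter-Glo 2.0 luminescence, with 0 set by vehicle wells and 1 by blank wells, after 72 hours of two-drug dosing of cells plated in 1536-well plates.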

[2] = tested on: OCI-AML5 (Acute Myeloid Leukemia); assay: as above
Method in brief: as §1

[3] = tested on: AsPC-1 (Pancreatic Carcinoma); assay: combination Emax (second highest fraction inhibited in the dose matrix, 72 h); higher = more inhibition; extreme values may be limits of the assay
Method in brief: as §1

[4] = tested on: Becker (Low Grade Glioma); assay: as above
Method in brief: as §1

[5] = tested on: CML-T1 (Chronic Myelogenous Leukemia); assay: as above
Method in brief: as §1

[6] = tested on: Caov-3 (Ovarian Carcinoma); assay: as above
Method in brief: as §1

HuO-3N1 (Osteosarcoma) = assay: as above
Method in brief: as §1

[7] = tested on: KYSE-70 (Esophageal Squamous Cell Carcinoma); assay: as above
Method in brief: as §1

[8] = tested on: LAMA-84 (Chronic Myelogenous Leukemia); assay: as above
Method in brief: as §1

[9] = tested on: NCI-H1155 (Non-Small Cell Lung Carcinoma); assay: as above
Method in brief: as §1

[10] = tested on: OV-90 (Ovarian Carcinoma); assay: as above
Method in brief: as §1

[11] = tested on: OVTOKO (Ovarian Carcinoma); assay: as above
Method in brief: as §1

[12] = tested on: PANC-02-03 (Pancreatic Carcinoma); assay: as above
Method in brief: as §1

[13] = tested on: PC-14 (Lung Adenocarcinoma); assay: as above
Method in brief: as §1

[14] = tested on: RL95-2 (Endometrial Carcinoma); assay: as above
Method in brief: as §1

[15] = tested on: RMG-I (Ovarian Carcinoma); assay: as above
Method in brief: as §1

[16] = tested on: RPMI-8866 (Chronic Myelogenous Leukemia); assay: as above
Method in brief: as §1

RT4 (Bladder Carcinoma) = assay: as above
Method in brief: as §1

[17] = tested on: SJRH30 (Rhabdomyosarcoma); assay: as above
Method in brief: as §1

[18] = tested on: SW684 (Other Solid Carcinomas); assay: as above
Method in brief: as §1

`CC1(C)CCC(CN2CCN(c3ccc(C(=O)NS(=O)(=O)c4ccc(NCC5CCOCC5)c([N+](=O)[O-])c4)c(Oc4cnc5[nH]ccc5c4)c3)CC2)=C(c2ccc(Cl)cc2)C1` [Venetoclax] + C1CN(CCC1(C(=O)N[C@@H](CCO)C2=CC=C(C=C2)Cl)N)C3=NC=NC4=C3C=CN4 [Capivasertib] (first compound max 1 µM, 7x7, partner max 3 µM) was tested, and the Bliss excess [1] was -0.0683, the Bliss excess [2] was -0.0057 and the “combination Emax” value [3] was 0.207. The “combination Emax” value [4] was 0.359, the “combination Emax” value [5] was 0.935 and the “combination Emax” value [6] was 0.553. For the same compound, the “combination Emax” value (HuO-3N1 (Osteosarcoma)) was 0.242, the “combination Emax” value [7] was 0.234 and the “combination Emax” value [8] was 0.371. For the same compound, the “combination Emax” value [9] was 0.289, the “combination Emax” value [10] was 0.366 and the “combination Emax” value [11] was 0.462. For the same compound, the “combination Emax” value [12] was 0.189, the “combination Emax” value [13] was 0.328 and the “combination Emax” value [14] was 0.494. For the same compound, the “combination Emax” value [15] was 0.242, the “combination Emax” value [16] was 0.292 and the “combination Emax” value (RT4 (Bladder Carcinoma)) was 0.0704. For the same compound, the “combination Emax” value [17] was 0.387 and the “combination Emax” value [18] was 0.392.

In the case of `Cc1c2c(nn1C)CSCc1cc(n(C)n1)CSc1cc(c3ccccc3c1)OCCCc1c(C(=O)O)n(C)c3c-2c(Cl)ccc13` [AZD5991] + C[C@@H]1COCCN1C2=NC(=NC(=C2)C3(CC3)[S@](=N)(=O)C)C4=C5C=CNC5=NC=C4 [AZD6738] (first compound max 1 µM, 7x7, partner max 10 µM), the Bliss excess [1] was 0.0209, the Bliss excess [2] was -0.0011 and the “combination Emax” value [3] was 0.292. For the same compound, the “combination Emax” value [4] was 0.632, the “combination Emax” value [5] was 0.96 and the “combination Emax” value [6] was 0.763. The “combination Emax” value (HuO-3N1 (Osteosarcoma)) was 0.894, the “combination Emax” value [7] was 0.379 and the “combination Emax” value [8] was 0.966. The “combination Emax” value [9] was 0.849, the “combination Emax” value [10] was 0.51 and the “combination Emax” value [11] was 0.452. The “combination Emax” value [12] was 0.528, the “combination Emax” value [13] was 0.855 and the “combination Emax” value [14] was 1. The “combination Emax” value [15] was 0.544, the “combination Emax” value [16] was 0.973 and the “combination Emax” value (RT4 (Bladder Carcinoma)) was 0.536. The “combination Emax” value [17] was 0.939 and the “combination Emax” value [18] was 0.428.

With `C=CCn1c(=O)c2cnc(Nc3ccc(N4CCN(C)CC4)cc3)nc2n1-c1cccc(C(C)(C)O)n1` [AZD1775] + O=C(c1cc(Cc2n[nH]c(=O)c3ccccc23)ccc1F)N1CCN(C(=O)C2CC2)CC1 [Olaparib] (first compound max 1 µM, partner max 10 µM) the Bliss excess [1] was -0.0426, the Bliss excess [2] was -0.0096 and the “combination Emax” value [3] was 0.29. For the same compound, the “combination Emax” value [4] was 0.216, the “combination Emax” value [5] was 0.962 and the “combination Emax” value [6] was 0.716. For the same compound, the “combination Emax” value (HuO-3N1 (Osteosarcoma)) was 0.2, the “combination Emax” value [7] was 0.655 and the “combination Emax” value [8] was 0.943. For the same compound, the “combination Emax” value [9] was 0.454, the “combination Emax” value [10] was 0.559 and the “combination Emax” value [11] was 0.496. The “combination Emax” value [12] was 0.667, the “combination Emax” value [13] was 0.887 and the “combination Emax” value [14] was 0.486. The “combination Emax” value [15] was 0.365, the “combination Emax” value [16] was 0.977 and the “combination Emax” value (RT4 (Bladder Carcinoma)) was 0.283. The “combination Emax” value [17] was 0.777 and the “combination Emax” value [18] was 0.249.

In the case of `CC(=O)Nc1cccc(-n2c(=O)n(C3CC3)c(=O)c3c(Nc4ccc(I)cc4F)n(C)c(=O)c(C)c32)c1` [Trametinib] + Cc1nc(-c2cn3c(n2)-c2ccc(-c4cnn(C(C)(C)C(N)=O)c4)cc2OCC3)n(C(C)C)n1 [Taselisib] (first compound max 1 µM, 7x7, partner max 10 µM), the Bliss excess [1] was 0.0489, the Bliss excess [2] was 0.194 and the “combination Emax” value [3] was 0.608. For the same compound, the “combination Emax” value [4] was 0.678, the “combination Emax” value [5] was 0.465 and the “combination Emax” value [6] was 0.836. For the same compound, the “combination Emax” value (HuO-3N1 (Osteosarcoma)) was 0.461, the “combination Emax” value [7] was 0.804 and the “combination Emax” value [8] was 1. For the same compound, the “combination Emax” value [9] was 0.348, the “combination Emax” value [10] was 0.834 and the “combination Emax” value [11] was 0.795. For the same compound, the “combination Emax” value [12] was 0.939, the “combination Emax” value [13] was 1 and the “combination Emax” value [14] was 0.588. For the same compound, the “combination Emax” value [15] was 0.485, the “combination Emax” value [16] was 0.71 and the “combination Emax” value (RT4 (Bladder Carcinoma)) was 0.734. The “combination Emax” value [17] was 0.947 and the “combination Emax” value [18] was 0.929.

In the case of `COc1cccc(OCCCN)c1-c1cc(Nc2cnc(C#N)cn2)n[nH]1` [Prexasertib] + C=CCn1c(=O)c2cnc(Nc3ccc(N4CCN(C)CC4)cc3)nc2n1-c1cccc(C(C)(C)O)n1 [AZD1775] (first compound max 1 µM, partner max 1 µM), the Bliss excess [1] was 0.0312, the Bliss excess [2] was 0.063 and the “combination Emax” value [3] was 0.41. For the same compound, the “combination Emax” value [4] was 0.733, the “combination Emax” value [5] was 0.99 and the “combination Emax” value [6] was 0.798. For the same compound, the “combination Emax” value (HuO-3N1 (Osteosarcoma)) was 0.756, the “combination Emax” value [7] was 0.777 and the “combination Emax” value [8] was 0.992. For the same compound, the “combination Emax” value [9] was 0.963, the “combination Emax” value [10] was 0.628 and the “combination Emax” value [11] was 0.606. For the same compound, the “combination Emax” value [12] was 0.662, the “combination Emax” value [13] was 0.932 and the “combination Emax” value [14] was 0.957. For the same compound, the “combination Emax” value [15] was 0.727, the “combination Emax” value [16] was 1 and the “combination Emax” value (RT4 (Bladder Carcinoma)) was 0.742. For the same compound, the “combination Emax” value [17] was 0.97 and the “combination Emax” value [18] was 0.598.

`Cc1c2c(nn1C)CSCc1cc(n(C)n1)CSc1cc(c3ccccc3c1)OCCCc1c(C(=O)O)n(C)c3c-2c(Cl)ccc13` [AZD5991] + C[C@@H](Nc1cc(F)cc(F)c1)c1cc(C(=O)N(C)C)cc2c(=O)cc(N3CCOCC3)oc12 [AZD8186] (first compound max 1 µM, 7x7, partner max 3 µM) was tested, and the Bliss excess [1] was -0.0275, the Bliss excess [2] was -0.0146 and the “combination Emax” value [3] was 0.235. For the same compound, the “combination Emax” value [4] was 0.462, the “combination Emax” value [5] was 0.103 and the “combination Emax” value [6] was 0.374. The “combination Emax” value (HuO-3N1 (Osteosarcoma)) was 0.893, the “combination Emax” value [7] was 0.173 and the “combination Emax” value [8] was 0.12. For the same compound, the “combination Emax” value [9] was 0.33, the “combination Emax” value [10] was 0.214 and the “combination Emax” value [11] was 0.605. For the same compound, the “combination Emax” value [12] was 0.232, the “combination Emax” value [13] was 0.255 and the “combination Emax” value [14] was 0.95. The “combination Emax” value [15] was 0.426, the “combination Emax” value [16] was 0.592 and the “combination Emax” value (RT4 (Bladder Carcinoma)) was 0.286. The “combination Emax” value [17] was 0.588 and the “combination Emax” value [18] was 0.454.

`C=CCn1c(=O)c2cnc(Nc3ccc(N4CCN(C)CC4)cc3)nc2n1-c1cccc(C(C)(C)O)n1` [AZD1775] + C[C@@H]1COCCN1C2=NC(=NC(=C2)C3(CC3)[S@](=N)(=O)C)C4=C5C=CNC5=NC=C4 [AZD6738] (first compound max 1 µM, partner max 10 µM) was tested, and the Bliss excess [1] was 0.0002, the Bliss excess [2] was 0.005 and the “combination Emax” value [3] was 0.475. The “combination Emax” value [4] was 0.678, the “combination Emax” value [5] was 0.971 and the “combination Emax” value [6] was 0.762. The “combination Emax” value (HuO-3N1 (Osteosarcoma)) was 0.5, the “combination Emax” value [7] was 0.656 and the “combination Emax” value [8] was 0.993. The “combination Emax” value [9] was 0.864, the “combination Emax” value [10] was 0.526 and the “combination Emax” value [11] was 0.56. The “combination Emax” value [12] was 0.728, the “combination Emax” value [13] was 0.918 and the “combination Emax” value [14] was 0.914. The “combination Emax” value [15] was 0.686, the “combination Emax” value [16] was 0.989 and the “combination Emax” value (RT4 (Bladder Carcinoma)) was 0.623. For the same compound, the “combination Emax” value [17] was 0.962 and the “combination Emax” value [18] was 0.474.
